Measured values from US20050124575A1, “Remedies” (Takara Bio Inc., priority 2002, published 2005).

Tested on: mouse
Experiment: Acute toxicity after oral or intraperitoneal administration
Assay type: in vivo
Conditions: orally or intraperitoneally administered to a mouse at 1 g/kg

agarose was tested, and the acute toxicity was “No acute toxicity”.
